{"source": "patent US12371411B2", "about": "“Water and thermal treatment of purified 2,5-furandicarboxylic acid” (Furanix Technologies B.V., priority 2019, dated 2025)", "experiment": "Solubility of FDCA for a given temperature and solvent", "assay_type": "physicochemical", "settings": "for Solubility at T, wt % in solvent / Solubility at temp., wt % in solvent: estimated FDCA solubility", "from_the_text": "The skilled person can adjust the thermal treatment conditions to the required degree of dissolution, wherein the following table can be used that lists values for the solubility of FDCA at a given temperature depending on the solvent composition employed. […] Intermediate values can be obtained by interpolation.\nFor a better understanding, the estimated FDCA solubility in the given solvent at the process temperature is provided as well."}
{"smiles": "O=C(O)c1ccc(C(=O)O)o1", "note": "[FDCA, 2,5-Furandicarboxylic acid]", "values": [{"measurement": "Solubility of FDCA", "setting": "HAc:Water 0:100 by weight, 140° C.", "result": 7.0, "unit": "wt %"}, {"measurement": "Solubility of FDCA", "setting": "HAc:Water 0:100 by weight, 150° C.", "result": 9.2, "unit": "wt %"}, {"measurement": "Solubility of FDCA", "setting": "HAc:Water 0:100 by weight, 160° C.", "result": 11.7, "unit": "wt %"}, {"measurement": "Solubility of FDCA", "setting": "HAc:Water 0:100 by weight, 170° C.", "result": 14.8, "unit": "wt %"}, {"measurement": "Solubility of FDCA", "setting": "HAc:Water 0:100 by weight, 180° C.", "result": 18.4, "unit": "wt %"}, {"measurement": "Solubility of FDCA", "setting": "HAc:Water 0:100 by weight, 190° C.", "result": 22.4, "unit": "wt %"}, {"measurement": "Solubility of FDCA", "setting": "HAc:Water 0:100 by weight, 200° C.", "result": 26.8, "unit": "wt %"}, {"measurement": "Solubility of FDCA", "setting": "HAc:Water 10:90 by weight, 140° C.", "result": 7.7, "unit": "wt %"}, {"measurement": "Solubility of FDCA", "setting": "HAc:Water 10:90 by weight, 150° C.", "result": 9.9, "unit": "wt %"}, {"measurement": "Solubility of FDCA", "setting": "HAc:Water 10:90 by weight, 160° C.", "result": 12.6, "unit": "wt %"}, {"measurement": "Solubility of FDCA", "setting": "HAc:Water 10:90 by weight, 170° C.", "result": 15.6, "unit": "wt %"}, {"measurement": "Solubility of FDCA", "setting": "HAc:Water 10:90 by weight, 180° C.", "result": 19.2, "unit": "wt %"}, {"measurement": "Solubility of FDCA", "setting": "HAc:Water 10:90 by weight, 190° C.", "result": 23.1, "unit": "wt %"}, {"measurement": "Solubility of FDCA", "setting": "HAc:Water 10:90 by weight, 200° C.", "result": 27.4, "unit": "wt %"}, {"measurement": "Solubility of FDCA", "setting": "HAc:Water 20:80 by weight, 140° C.", "result": 8.3, "unit": "wt %"}, {"measurement": "Solubility of FDCA", "setting": "HAc:Water 20:80 by weight, 150° C.", "result": 10.6, "unit": "wt %"}, {"measurement": "Solubility of FDCA", "setting": "HAc:Water 20:80 by weight, 160° C.", "result": 13.3, "unit": "wt %"}, {"measurement": "Solubility of FDCA", "setting": "HAc:Water 20:80 by weight, 170° C.", "result": 16.3, "unit": "wt %"}, {"measurement": "Solubility of FDCA", "setting": "HAc:Water 20:80 by weight, 180° C.", "result": 19.8, "unit": "wt %"}, {"measurement": "Solubility of FDCA", "setting": "HAc:Water 20:80 by weight, 190° C.", "result": 23.7, "unit": "wt %"}, {"measurement": "Solubility of FDCA", "setting": "HAc:Water 20:80 by weight, 200° C.", "result": 27.8, "unit": "wt %"}, {"measurement": "Solubility of FDCA", "setting": "HAc:Water 30:70 by weight, 140° C.", "result": 8.9, "unit": "wt %"}, {"measurement": "Solubility of FDCA", "setting": "HAc:Water 30:70 by weight, 150° C.", "result": 11.1, "unit": "wt %"}, {"measurement": "Solubility of FDCA", "setting": "HAc:Water 30:70 by weight, 160° C.", "result": 13.8, "unit": "wt %"}, {"measurement": "Solubility of FDCA", "setting": "HAc:Water 30:70 by weight, 170° C.", "result": 16.8, "unit": "wt %"}, {"measurement": "Solubility of FDCA", "setting": "HAc:Water 30:70 by weight, 180° C.", "result": 20.1, "unit": "wt %"}, {"measurement": "Solubility of FDCA", "setting": "HAc:Water 30:70 by weight, 190° C.", "result": 23.8, "unit": "wt %"}, {"measurement": "Solubility of FDCA", "setting": "HAc:Water 30:70 by weight, 200° C.", "result": 27.8, "unit": "wt %"}, {"measurement": "Solubility of FDCA", "setting": "HAc:Water 40:60 by weight, 140° C.", "result": 9.1, "unit": "wt %"}, {"measurement": "Solubility of FDCA", "setting": "HAc:Water 40:60 by weight, 150° C.", "result": 11.3, "unit": "wt %"}, {"measurement": "Solubility of FDCA", "setting": "HAc:Water 40:60 by weight, 160° C.", "result": 13.9, "unit": "wt %"}, {"measurement": "Solubility of FDCA", "setting": "HAc:Water 40:60 by weight, 170° C.", "result": 16.7, "unit": "wt %"}, {"measurement": "Solubility of FDCA", "setting": "HAc:Water 40:60 by weight, 180° C.", "result": 19.9, "unit": "wt %"}, {"measurement": "Solubility of FDCA", "setting": "HAc:Water 40:60 by weight, 190° C.", "result": 23.4, "unit": "wt %"}, {"measurement": "Solubility of FDCA", "setting": "HAc:Water 40:60 by weight, 200° C.", "result": 27.1, "unit": "wt %"}, {"measurement": "Solubility of FDCA", "setting": "HAc:Water 50:50 by weight, 140° C.", "result": 9.0, "unit": "wt %"}, {"measurement": "Solubility of FDCA", "setting": "HAc:Water 50:50 by weight, 150° C.", "result": 11.0, "unit": "wt %"}, {"measurement": "Solubility of FDCA", "setting": "HAc:Water 50:50 by weight, 160° C.", "result": 13.4, "unit": "wt %"}, {"measurement": "Solubility of FDCA", "setting": "HAc:Water 50:50 by weight, 170° C.", "result": 16.0, "unit": "wt %"}, {"measurement": "Solubility of FDCA", "setting": "HAc:Water 50:50 by weight, 180° C.", "result": 19.0, "unit": "wt %"}, {"measurement": "Solubility of FDCA", "setting": "HAc:Water 50:50 by weight, 190° C.", "result": 22.1, "unit": "wt %"}, {"measurement": "Solubility of FDCA", "setting": "HAc:Water 50:50 by weight, 200° C.", "result": 25.6, "unit": "wt %"}, {"measurement": "Solubility of FDCA", "setting": "HAc:Water 60:40 by weight, 140° C.", "result": 8.2, "unit": "wt %"}, {"measurement": "Solubility of FDCA", "setting": "HAc:Water 60:40 by weight, 150° C.", "result": 10.0, "unit": "wt %"}, {"measurement": "Solubility of FDCA", "setting": "HAc:Water 60:40 by weight, 160° C.", "result": 12.1, "unit": "wt %"}, {"measurement": "Solubility of FDCA", "setting": "HAc:Water 60:40 by weight, 170° C.", "result": 14.5, "unit": "wt %"}, {"measurement": "Solubility of FDCA", "setting": "HAc:Water 60:40 by weight, 180° C.", "result": 17.0, "unit": "wt %"}, {"measurement": "Solubility of FDCA", "setting": "HAc:Water 60:40 by weight, 190° C.", "result": 19.9, "unit": "wt %"}, {"measurement": "Solubility of FDCA", "setting": "HAc:Water 60:40 by weight, 200° C.", "result": 22.9, "unit": "wt %"}, {"measurement": "Solubility of FDCA", "setting": "HAc:Water 70:30 by weight, 140° C.", "result": 6.8, "unit": "wt %"}, {"measurement": "Solubility of FDCA", "setting": "HAc:Water 70:30 by weight, 150° C.", "result": 8.3, "unit": "wt %"}, {"measurement": "Solubility of FDCA", "setting": "HAc:Water 70:30 by weight, 160° C.", "result": 10.0, "unit": "wt %"}, {"measurement": "Solubility of FDCA", "setting": "HAc:Water 70:30 by weight, 170° C.", "result": 12.0, "unit": "wt %"}, {"measurement": "Solubility of FDCA", "setting": "HAc:Water 70:30 by weight, 180° C.", "result": 14.2, "unit": "wt %"}, {"measurement": "Solubility of FDCA", "setting": "HAc:Water 70:30 by weight, 190° C.", "result": 16.6, "unit": "wt %"}, {"measurement": "Solubility of FDCA", "setting": "HAc:Water 70:30 by weight, 200° C.", "result": 19.2, "unit": "wt %"}, {"measurement": "Solubility of FDCA", "setting": "HAc:Water 80:20 by weight, 140° C.", "result": 4.9, "unit": "wt %"}, {"measurement": "Solubility of FDCA", "setting": "HAc:Water 80:20 by weight, 150° C.", "result": 6.1, "unit": "wt %"}, {"measurement": "Solubility of FDCA", "setting": "HAc:Water 80:20 by weight, 160° C.", "result": 7.5, "unit": "wt %"}, {"measurement": "Solubility of FDCA", "setting": "HAc:Water 80:20 by weight, 170° C.", "result": 9.1, "unit": "wt %"}, {"measurement": "Solubility of FDCA", "setting": "HAc:Water 80:20 by weight, 180° C.", "result": 10.9, "unit": "wt %"}, {"measurement": "Solubility of FDCA", "setting": "HAc:Water 80:20 by weight, 190° C.", "result": 12.9, "unit": "wt %"}, {"measurement": "Solubility of FDCA", "setting": "HAc:Water 80:20 by weight, 200° C.", "result": 15.1, "unit": "wt %"}, {"measurement": "Solubility of FDCA", "setting": "HAc:Water 90:10 by weight, 140° C.", "result": 3.5, "unit": "wt %"}, {"measurement": "Solubility of FDCA", "setting": "HAc:Water 90:10 by weight, 150° C.", "result": 4.5, "unit": "wt %"}, {"measurement": "Solubility of FDCA", "setting": "HAc:Water 90:10 by weight, 160° C.", "result": 5.6, "unit": "wt %"}, {"measurement": "Solubility of FDCA", "setting": "HAc:Water 90:10 by weight, 170° C.", "result": 7.0, "unit": "wt %"}, {"measurement": "Solubility of FDCA", "setting": "HAc:Water 90:10 by weight, 180° C.", "result": 8.7, "unit": "wt %"}, {"measurement": "Solubility of FDCA", "setting": "HAc:Water 90:10 by weight, 190° C.", "result": 10.6, "unit": "wt %"}, {"measurement": "Solubility of FDCA", "setting": "HAc:Water 90:10 by weight, 200° C.", "result": 12.8, "unit": "wt %"}, {"measurement": "Solubility of FDCA", "setting": "HAc:Water 95:5 by weight, 140° C.", "result": 3.3, "unit": "wt %"}, {"measurement": "Solubility of FDCA", "setting": "HAc:Water 95:5 by weight, 150° C.", "result": 4.4, "unit": "wt %"}, {"measurement": "Solubility of FDCA", "setting": "HAc:Water 95:5 by weight, 160° C.", "result": 5.7, "unit": "wt %"}, {"measurement": "Solubility of FDCA", "setting": "HAc:Water 95:5 by weight, 170° C.", "result": 7.3, "unit": "wt %"}, {"measurement": "Solubility of FDCA", "setting": "HAc:Water 95:5 by weight, 180° C.", "result": 9.3, "unit": "wt %"}, {"measurement": "Solubility of FDCA", "setting": "HAc:Water 95:5 by weight, 190° C.", "result": 11.6, "unit": "wt %"}, {"measurement": "Solubility of FDCA", "setting": "HAc:Water 95:5 by weight, 200° C.", "result": 14.3, "unit": "wt %"}, {"measurement": "Solubility at T, wt % in solvent", "setting": "HAc:Water 0:100, 130° C. (test Comp. 4)", "result": 5.3, "unit": "wt % in solvent"}, {"measurement": "Solubility at temp., wt % in solvent", "setting": "HAc:Water 0:100, 180° C. (test Ex. 3)", "result": 18.4, "unit": "wt % in solvent"}, {"measurement": "Solubility at T, wt % in solvent", "setting": "HAc:Water 70:30, 125° C. (test Comp. 3)", "result": 6.1, "unit": "wt % in solvent"}, {"measurement": "Solubility at temp., wt % in solvent", "setting": "HAc:Water 70:30, 180° C. (tests Ex. 1, Ex. 2)", "result": 14.2, "unit": "wt % in solvent"}]}
